Assay results reported in patent US9603922B2, “Modulation of NKT cell activity with antigen-loaded CD1d molecules” (VACCINEX, INC., priority 2007, dated 2017).

B1: αGalCer/sCD1d: soluble monomeric mouse β2m-CD1d, His-tagged, loaded with αGalCer (protein)
chain: IQKTPQIQVYSRHPPENGKPNILNCYVTQFHPPHIEIQMLKNGKKIPKVEMSDMSFSKDWSFYILAHTEFTPTETDTYACRVKHASMAEPKTVYWDRDMGGGGSGGSGSGGGSEAQQKNYTFRCLQMSSFANRSWSRTDSVVWLGDLQTHRWSNDSATISFTKPWSQGKLSNQQWEKLQHMFQVYRVSFTRDIQELVKMMSPKEDYPIEIQLSAGCEMYPGNASESFLHVAFQGKYVVRFWGTSWQTVPGAPSWLDLPIKVLNADQGTSATVQMLLNDTCPLFVRGLLEAGKSDLEKQEKPVAWLSSVPSSADGHRQLVCHVSGFYPKPVWVMWMRGDQEQQGTHRGDFLPNADETWYLQATLDVEAGEEAGLACRVKHSSLGGQDIILYWSSGSGGHHHHHH

Legend:
[1] = system: liver and spleen iNKT cells; experiment: Intracellular cytokine staining of liver and spleen NKT cells after repeated i.v. injections; set-up: species or system mouse; details: after 5 to 6 i.v. injections every three days; ex vivo and in vitro rechallenge
Description: FIG. 2: a Sustained IFNγ production by liver and spleen iNKT cells after several injections of CD1d/anti-HER2 fusion. Liver and spleen lymphocytes were isolated 20 minutes after the sixth injection of either PBS (control, white bar), αGalCer 0.4 μg (grey bar), or αGalCer/CD1d-anti-HER2 fusion protein 40 μg (black bar) and cultured for 1 hour in presence of GOLGI PLUG™ reagent. NKT cells were then stained with anti NK1.1-PE and anti CD3-FITC antibodies, fixed and stained for intracellular IFNγ with anti IFNγ-APC. […] Liver lymphocytes were isolated after 5 injections i.v. of either PBS (Control), αGalCer, αGalCer/CD1d-anti-HER2 fusion protein (Fusion) or αGalCer/sCD1d (sCD1d) and stimulated in vitro for 6 hours in presence of GOLGI PLUG™ as indicated. […]
Isolation of liver, lung and spleen lymphocytes. […] After two washings, cells were either re-challenged or directly analyzed by fluorescence cytometry. […]
Sustained production of IFNγ after repeated i.v. injections: cytokine production was tested by IntraCellular Cytokine Staining (ICCS). […] After fixation and permeabilization with CYTOFIX/CYTOPERM™ (BD), intracellular IFNγ was detected with an APC-labeled anti-IFNγ monoclonal antibody. Cells were analyzed by flow cytometry on a FACS Calibur ([…]™ Software; BD). […]

B16 melanoma cells = experiment: Pretreatment and B16 melanoma lung metastasis; assay type: in vivo, mouse; details: for Lung metastasis / tumor resistance in pretreated mice: 5 i.v. pretreatments every 3 days, then 700,000 B16 cells co-injected with same agent; for Lung metastasis / tumor development in naïve mice: no pretreatment, agent co-injected with B16 cells
Description: FIG. 4: Sustained iNKT activation in vivo due to repeated injections of αGalCer/sCD1d prevents formation of lung metastases. Mice were treated 5 times with PBS (Control, white), αGalCer (0.4 μg, light grey), or αGalCer/sCD1d (sCD1d, 20 μg, black) and then grafted with 700,000 B16 wild type cells plus co-injection of the respective treatment. 2 naive groups were included that had no pretreatment and got only tumor cell graft+co-injection of αGalCer (striped grey) or αGalCer/sCD1d (sCD1d, dark striped grey) respectively. Lung metastases formation was analysed 2 weeks after graft with the ImageJ k-means clustering program and results are expressed as percent of black metastatic surface over total lung surface. P values for αGalCer/sCD1d pretreated and naive+αGalCer groups compared to control *P<0.04, and compared to αGalCer pretreated group *P<0.02.
(§1) Quantification of lung metastasis. Metastatic nodule surface area was measured on 2560×1920 pixels photographs of the whole organs, taken on an Zeiss STEMI SV11 dissection microscope (Carl Zeiss, Jena, Germany) equipped with a PROGRES-C10plus Color Camera (Jenoptik, Jena, Germany). Each image was analyzed with the ImageJ program (rsb.info.nih.gov/ij/) using a k-means clustering algorithm (plugin available on ij-plugins.sourceforge.net). Images were segmented into 9 segments cluster tolerance 1×10−4, randomization seed: 48) and the appropriate segments were selected based on the color of the metastasis reaching the surface of the organ. The area of the sum of selected color segments was expressed as percentage of the area occupied by the lungs. Both sides of the lung were analyzed. This method takes into account both the number and the size of the tumor nodules. Since nodules are often heterogenous the percentage of metastatic lung surface area is a more sensitive measure of tumor growth than just counting tumor nodules.
This is most likely due to the anergic state of iNKT cells induced by free αGalCer. In contrast, in naïve mice, opposite results were obtained. […] The key finding is that multiple prior injections of αGalCer loaded recombinant CD1d molecules but not of free αGalCer confers resistance to tumor development.

B16 wild type cells = experiment: Precoating experiment, lung metastases of B16 wild type cells; assay type: in vivo, mouse; details: cells pre-incubated with agent, injected i.v. into naïve mice
Description: FIG. 5: Precoating experiment.
as §1
This affect may be caused by a transient association of the αGalCer with the tumor cell surface, or by transient uptake of the free αGalCer.

B16-HER2 melanoma cells = experiment: Systemic treatment of B16-HER2 lung metastases; assay type: in vivo, mouse; details: 5 i.v. injections starting 48 hours after tumor graft
Description: FIG. 6: In vivo anti tumor activity—Systemic Treatment. a Mice were grafted i.v. with 700.000 B16-HER2 cells and i.v. treatment was started 48 hours later. Mice were injected i.v. 5 times every 2 to 3 days with PBS (control), αGalCer (0.4 μg), αGalCer/sCD1d (sCD1d, 25 μg), or αGalCer/CD1d-anti-HER2 fusion (Fusion, 40 μg). Lung metastases were analysed after 3 weeks by the ImageJ k-means clustering program and expressed as percent metastatic surface over total lung surface. […] Mice were injected i.v. with 700,000 B16-HER2 cells and treatment with PBS (Control), αGalCer, or αGalCer/CD1d-anti-HER2 fusion protein (Fusion) was started 6 days after graft. Mice were treated 3× i.v. every 2-3 days and lung metastases were analyzed after 3 weeks as described above.
Quantification of lung metastasis. Metastatic nodule surface area was measured on 2560×1920 pixels photographs of the whole organs, taken on an Zeiss STEMI SV11 dissection microscope (Carl Zeiss, Jena, Germany) equipped with a PROGRES-C10plus Color Camera (Jenoptik, Jena, Germany). Each image was analyzed with the ImageJ program (rsb.info.nih.gov/ij/) using a k-means clustering algorithm (plugin available on ij-plugins.sourceforge.net). […] The area of the sum of selected color segments was expressed as percentage of the area occupied by the lungs. Both sides of the lung were analyzed. […]

Molecule | IFNγ production by iNKT cells [1] | Lung metastasis / tumor resistance in pretreated mice (B16 melanoma cells) | Lung metastasis / tumor development in naïve mice (B16 melanoma cells) | Lung metastases of precoated B16 wild type cells (B16 wild type cells) | Anti tumor effect in words (B16-HER2 melanoma cells)
CCCCCCCCCCCCCCCCCCCCCCCCCC(=O)N[C@@H](CO[C@H]1O[C@H](CO)[C@H](O)[C@H](O)[C@H]1O)[C@H](O)[C@H](O)CCCCCCCCCCCCCC [αGalCer, α-galactosylceramide, reference compound] | only active in naïve (PBS control) mice and has no more effect in αGalCer-treated mice | not able to block lung metastasis | completely blocked tumor development | completely inhibited tumor development | no significant anti tumor effect
B1 | stimulate iNKT to produce IFNγ following repeated in vivo stimulation with the same material | rendered them resistant to B16 melanoma cells | had no effect | not able to block tumor growth | anti tumor activity which was very variable from mouse to mouse
